Structures can show the parent of a compound that is named as a salt.
Legend:
[1] = Example 8 amount of peracetic acid in solution over time (NEO-PURE Liquid with/without Quadris); type: physicochemical; settings: diluted NEO-PURE Liquid
Source text: Another liquid organic formulation based on pre-formed peracetic acid, called NEO-PURE™ Liquid, was formulated to study its compatibility with single-site fungicides such as azoles and strobilurins.
The above formulation contains a minimum of 5% w/w active peracetic acid and 20% w/w hydrogen peroxide.

[2] = Example 4 HPLC compatibility: degradation of azoxystrobin by NEO-BOOST 18/18; type: physicochemical; settings: NEO-BOOST 18/18 at 3.6 g/L combined with 0.5 g/L azoxystrobin as Quadris
Procedure: NEO-BOOST 18/18 at 3.6 g/L was combined with 0.5 g/L azoxystrobin in the form of Quadris®. In addition, several controls were prepared consisting of respectively: 0.5 g/L azoxystrobin in the form of Quadris®, and NEO-BOOST 18/18 at 3.6 g/L. All of the above were then converted or rendered into a form that could be analyzed by high-performance liquid chromatography (HPLC). The HPLC column was first calibrated with the reference standard azoxystrobin and then the samples were injected into the column at predetermined intervals to see whether the Quadris® was degraded at all by the NEO-BOOST 18/18.

Erwinia amylovora = assay: Example 5 in vitro agar well inhibition of Erwinia amylovora; type: cell-based; settings: LBA plates, 25° C., 72 hours; for bacterial inhibition zone (diameter): 1 cm center well
Procedure: Virgin Luria-Bertani agar (LBA) plates were inoculated in triplicate each with 1 mL of concentrated Erwinia amylovora suspension by aseptically spreading the bacteria uniformly onto the agar surfaces. A center well 1 cm in diameter was punched into the agar of each plate. Test products were added dropwise into each of these center wells until the liquid level just reached the agar surface (normally 5-7 drops were required). Plates were incubated at 25° C. for 72 hours then observed for evidence of bacterial growth inhibition.
Treatment List • 1. NEO-BOOST at 3.6 g/L. • 2. FireLine® [oxytetracycline hydrochloride 17% w/w] at 1.2 g/L • 3. FireWall® [streptomycin sulfate 17% w/w] at 0.6 g/L • 4. FireLine® at 1.2 g/L+FireWall® at 0.6 g/L • 5. NEO-BOOST at 3.6 g/L+FireLine® at 1.2 g/L • 6. NEO-BOOST at 3.6 g/L+FireWall® at 0.6 g/L • 7. NEO-BOOST at 3.6 g/L+FireLine® at 1.2 g/L+FireWall® at 0.6 g/L 8. Water.

SMILES: CO/C=C(/C(=O)OC)c1ccccc1Oc1cc(Oc2ccccc2C#N)ncn1 [azoxystrobin, methyl (E)-2-{2-[6-(2-cyanophenoxy)pyrimidin-4-yloxy]phenyl}-3-methoxyacrylate]
- decomposition of peracetic acid by the presence of azoxystrobin over time [1]: not decomposed
- degradation of azoxystrobin by NEO-BOOST (HPLC) [2]: did not degrade azoxystrobin at all

SMILES: CN(C)[C@@H]1C(=O)C(C(N)=O)=C(O)[C@@]2(O)C(=O)C3=C(O)c4c(O)cccc4[C@@](C)(O)[C@H]3[C@H](O)[C@@H]12.Cl [Oxytetracycline, oxytetracycline hydrochloride]
- bacterial inhibition zone (diameter) (Erwinia amylovora): about 3 cm
- depth of inhibition through the bacterial lawn to the agar surface (Erwinia amylovora): penetrated all the way down to the agar surface

SMILES: [H]/N=C(/N)N[C@H]1[C@H](O)[C@@H](O)[C@H](O[C@@H]2O[C@@H](C)[C@](O)(C=O)[C@H]2O[C@@H]2O[C@@H](CO)[C@H](O)[C@@H](O)[C@@H]2NC)[C@@H](N/C(N)=N\[H])[C@@H]1O [streptomycin, streptomycin sulfate]
- bacterial inhibition zone (diameter) (Erwinia amylovora): about 3 cm
- depth of inhibition through the bacterial lawn to the agar surface (Erwinia amylovora): penetrated all the way down to the agar surface
